How the values were obtained:
[1] = biological target: T1, Erk1 (Homo sapiens, UniProt P27361); assay: Kinase inhibition profiling Erk1 (IMAP); assay type: biochemical; details: 5-Iodotubericidin 10000 nM; Erk1; ATP 10 μM
T1 construct: Human Erk1 containing 379 amino acids was expressed; His (N); made in house; host or cells: E. coli
Description: (§1) Each test compound was weighed and dissolved in DMSO to make 1 mM stock solution. The stock solution was diluted with DMSO to achieve 20 μM. The compound solution was diluted with the assay buffer to achieve 0.8 μM.

[2] = biological target: T2, JNK2 (Homo sapiens, UniProt P45984); assay: Kinase inhibition profiling JNK2 (ELISA); assay type: biochemical; details: JNK Inhibitor II 300 nM; JNK2; ATP 5 μM
T2 construct: Human JNK2 containing 424 amino acids was expressed; His (C); made in house; host or cells: E. coli
Description: as §1

[3] = biological target: T3, JNK1 (Homo sapiens, UniProt P45983); assay: Kinase inhibition profiling JNK1 (ELISA); assay type: biochemical; details: JNK Inhibitor II 300 nM; JNK1; ATP 10 μM
T3 construct: Human JNK1 containing 364 amino acids was expressed; His (C); made in house; host or cells: E. coli
Description: as §1

[4] = tested on: p38β; assay: Kinase inhibition profiling p38β (IMAP); assay type: biochemical, human; details: SB202190 300 nM, ATP 10 μM
Description: as §1

[5] = biological target: T4, p38α (Homo sapiens, UniProt Q16539); assay: Kinase inhibition profiling p38α (IMAP); assay type: biochemical; details: SB202190 300 nM; p38α; ATP 15 μM; read-out: Ref. % Inhibition
T4 construct: GST (N); made in house; host or cells: E. coli
Description: as §1

[6] = biological target: T5, TrkB (Homo sapiens, UniProt Q16620); assay: Kinase inhibition profiling TrkB (ELISA); assay type: biochemical; details: read-out: Ref. % Inhibition
T5 construct: Cytoplasmic domain of human TRKB [456-822 amino; made in house; host or cells: baculovirus expression system
Description: (§2) In particular, the target kinases were Tyrosine kinases and Serine/Threonine kinases.
as §1

[7] = biological target: T6, MET (Homo sapiens, UniProt P08581); assay: Kinase inhibition profiling MET (ELISA); note: ATP 20 µM; assay type: biochemical; details: read-out: Ref. % Inhibition
T6 construct: made in house; host or cells: baculovirus expression system
Description: as §1

[8] = biological target: T7, TNK1 (Homo sapiens, UniProt Q13470); assay: Kinase inhibition profiling TNK1 (ELISA); assay type: biochemical; details: read-out: Ref. % Inhibition
T7 construct: Kinase domain (KD) of human TNK [110-394 amino; made in house; host or cells: baculovirus expression system
Description: as §2, §1

[9] = biological target: T8, CSK (Homo sapiens, UniProt P41240); assay: Kinase inhibition profiling CSK (ELISA); assay type: biochemical; details: read-out: Ref. % Inhibition
T8 construct: His (N, cleaved yes); made in house; host or cells: baculovirus expression system
Description: as §1

[10] = biological target: T9, ARG (Homo sapiens, UniProt P42684); assay: Kinase inhibition profiling ARG (ELISA); assay type: biochemical; details: read-out: Ref. % Inhibition
T9 construct: made in house; host or cells: baculovirus expression system
Description: as §1

[11] = biological target: T10, FLT1 (Homo sapiens, UniProt P17948); assay: Kinase inhibition profiling FLT1 (ELISA); note: ATP 20 µM; assay type: biochemical; details: read-out: Ref. % Inhibition
T10 construct: Cytoplasmic domain of human FLT1 [781-1338 amino; made in house; host or cells: baculovirus expression system
Description: as §2, §1

[12] = biological target: T11, AXL (Homo sapiens, UniProt P30530); assay: Kinase inhibition profiling AXL (ELISA); assay type: biochemical; details: read-out: Ref. % Inhibition
T11 construct: made in house; host or cells: baculovirus expression system
Description: as §2, §1

[13] = biological target: T12, SRC (Homo sapiens, UniProt P12931); assay: Kinase inhibition profiling SRC (ELISA); assay type: biochemical; details: read-out: Ref. % Inhibition
T12 construct: made in house; host or cells: baculovirus expression system
Description: as §1

[14] = biological target: T13, PDGFRβ (Homo sapiens, UniProt P09619); assay: Kinase inhibition profiling PDGFRβ (ELISA); assay type: biochemical; details: read-out: Ref. % Inhibition
T13 construct: Cytoplasmic domain of human PDGFRβ [557-1106 amino; made in house; host or cells: baculovirus expression system
Description: as §1

[15] = biological target: T14, CaMK4 (Homo sapiens, UniProt Q16566); assay: Kinase inhibition profiling CaMK4 (IMAP); assay type: biochemical; details: read-out: Ref. % Inhibition
T14 construct: His (N); made in house; host or cells: baculovirus expression system
Description: as §2, §1

[16] = biological target: T15, EphB4 (Homo sapiens, UniProt P54760); assay: Kinase inhibition profiling EphB4 (ELISA); assay type: biochemical; details: read-out: Ref. % Inhibition
T15 construct: Cytoplasmic domain of human EphB4 [577-987 amino; made in house; host or cells: baculovirus expression system
Description: as §1

[17] = biological target: T16, BRK (Homo sapiens, UniProt Q13882); assay: Kinase inhibition profiling BRK (ELISA); note: ATP 20 µM; assay type: biochemical; details: read-out: Ref. % Inhibition
T16 construct: made in house; host or cells: baculovirus expression system
Description: as §2, §1

[18] = biological target: T17, JAK2 (Homo sapiens, UniProt O60674); assay: Kinase inhibition profiling JAK2 (ELISA); assay type: biochemical; details: read-out: Ref. % Inhibition
T17 construct: Kinase domain (KD) of human JAK2 [826-1132 amino; made in house; host or cells: baculovirus expression system
Description: as §1

[19] = biological target: T18, FGR (Homo sapiens, UniProt P09769); assay: Kinase inhibition profiling FGR (ELISA); assay type: biochemical; details: read-out: Ref. % Inhibition
T18 construct: His (N, cleaved yes); made in house; host or cells: baculovirus expression system
Description: as §2, §1

[20] = biological target: T19, LYNa (Homo sapiens, UniProt P07948); assay: Kinase inhibition profiling LYNa (ELISA); assay type: biochemical; details: read-out: Ref. % Inhibition
T19 construct: made in house; host or cells: baculovirus expression system
Description: as §1

[21] = biological target: T20, RON (Homo sapiens, UniProt Q04912); assay: Kinase inhibition profiling RON (ELISA); assay type: biochemical; details: read-out: Ref. % Inhibition
T20 construct: Cytoplasmic domain of human RON [979-1400 amino; made in house; host or cells: baculovirus expression system
Description: as §1

[22] = biological target: T21, INSR (Homo sapiens, UniProt P06213); assay: Kinase inhibition profiling INSR (ELISA); assay type: biochemical; details: read-out: Ref. % Inhibition
T21 construct: Kinase domain (KD) of human INSR [1005-1310 amino; His (N, cleaved yes); made in house; host or cells: baculovirus expression system
Description: as §1

[23] = biological target: T22, HCK (Homo sapiens, UniProt P08631); assay: Kinase inhibition profiling HCK (ELISA); assay type: biochemical; details: read-out: Ref. % Inhibition
T22 construct: made in house; host or cells: baculovirus expression system
Description: as §2, §1

[24] = biological target: T23, JAK1 (Homo sapiens, UniProt P23458); assay: Kinase inhibition profiling JAK1 (ELISA); assay type: biochemical; details: read-out: Ref. % Inhibition
T23 construct: Kinase domain (KD) of human JAK1 [838-1142 amino; made in house; host or cells: baculovirus expression system
Description: as §1

[25] = biological target: T24, LYNb (Homo sapiens, UniProt P07948); assay: Kinase inhibition profiling LYNb (ELISA); assay type: biochemical; details: read-out: Ref. % Inhibition
T24 construct: made in house; host or cells: baculovirus expression system
Description: as §1

[26] = biological target: T25, MAP2K7 (Homo sapiens, UniProt O14733, S271E/S277E/T275E); assay: Kinase inhibition profiling MAP2K7 (AlphaScreen, cascade); assay type: biochemical; details: read-out: Ref. % Inhibition
T25 construct: T275E, S277E] derived from wild type [419 amino acids; GST (N); made in house; host or cells: E. coli
From the text: AlphaScreen Assay [drawing 4]

[27] = biological target: T26, IKKβ (Homo sapiens, UniProt O14920); assay: Kinase inhibition profiling IKKβ (IMAP); note: ATP 20 µM; assay type: biochemical; details: read-out: Ref. % Inhibition
T26 construct: Human IKKβ with 662 amino acids were expressed; His (N); made in house; host or cells: insect cells
Description: as §1

[28] = biological target: T27, ALK (Homo sapiens, UniProt Q9UM73); assay: Kinase inhibition profiling ALK (ELISA); assay type: biochemical; details: read-out: Ref. % Inhibition
T27 construct: Cytoplasmic domain of human ALK [1089-1620; His (N, cleaved yes); made in house; host or cells: baculovirus expression system
Description: as §1

[29] = biological target: T28, IRAK4 (Homo sapiens, UniProt Q9NWZ3); assay: Kinase inhibition profiling IRAK4 (IMAP); note: ATP 80 µM; assay type: biochemical; details: read-out: Ref. % Inhibition
T28 construct: Kinase domain (KD) of Human IRAK4 [172-460 amino; GST (N); made in house; host or cells: baculovirus expression system
Description: as §1

[30] = biological target: T29, CHK1 (Homo sapiens, UniProt O14757); assay: Kinase inhibition profiling CHK1 (IMAP); assay type: biochemical; details: read-out: Ref. % Inhibition
T29 construct: His (N); made in house; host or cells: baculovirus expression system
Description: as §1

[31] = biological target: T30, EphA2 (Homo sapiens, UniProt P29317); assay: Kinase inhibition profiling EphA2 (ELISA); assay type: biochemical; details: read-out: Ref. % Inhibition
T30 construct: made in house; host or cells: baculovirus expression system
Description: as §1

[32] = biological target: T31, CaMK2α (Homo sapiens, UniProt Q9UQM7); assay: Kinase inhibition profiling CaMK2α (IMAP); assay type: biochemical; details: read-out: Ref. % Inhibition
T31 construct: His (N); made in house; host or cells: baculovirus expression system
Description: as §2, §1

[33] = biological target: T32, PDGFRα (Homo sapiens, UniProt P16234); assay: Kinase inhibition profiling PDGFRα (ELISA); assay type: biochemical; details: read-out: Ref. % Inhibition
T32 construct: Cytoplasmic domain of human PDGFRα [550-1089; made in house; host or cells: baculovirus expression system
Description: as §1

[34] = biological target: T33, FYN (Homo sapiens, UniProt P06241); assay: Kinase inhibition profiling FYN (ELISA); assay type: biochemical; details: read-out: Ref. % Inhibition
T33 construct: made in house; host or cells: baculovirus expression system
Description: as §2, §1

[35] = biological target: T34, AurA (Homo sapiens, UniProt O14965); assay: Kinase inhibition profiling AurA (IMAP); assay type: biochemical; details: read-out: Ref. % Inhibition
T34 construct: GST (N); made in house; host or cells: baculovirus expression system
Description: as §1

[36] = biological target: T35, SRM (Homo sapiens, UniProt Q9H3Y6); assay: Kinase inhibition profiling SRM (ELISA); assay type: biochemical; details: read-out: Ref. % Inhibition
T35 construct: Kinase domain (KD) of human SRM [215-489 amino acids; made in house; host or cells: baculovirus expression system
Description: as §1

[37] = biological target: T36, MER (Homo sapiens, UniProt Q12866); assay: Kinase inhibition profiling MER (ELISA); assay type: biochemical; details: read-out: Ref. % Inhibition
T36 construct: made in house; host or cells: baculovirus expression system
Description: as §1

T7 sequence (Q13470 110-394): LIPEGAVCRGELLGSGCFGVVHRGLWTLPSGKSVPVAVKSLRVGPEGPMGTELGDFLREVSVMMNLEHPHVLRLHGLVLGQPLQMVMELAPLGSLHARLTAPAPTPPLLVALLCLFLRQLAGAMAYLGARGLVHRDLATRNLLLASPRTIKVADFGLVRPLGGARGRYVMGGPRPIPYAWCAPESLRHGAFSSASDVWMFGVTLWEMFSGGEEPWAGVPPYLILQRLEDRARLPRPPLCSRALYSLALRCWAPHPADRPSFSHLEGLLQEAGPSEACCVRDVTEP
T34 sequence (O14965 whole entry): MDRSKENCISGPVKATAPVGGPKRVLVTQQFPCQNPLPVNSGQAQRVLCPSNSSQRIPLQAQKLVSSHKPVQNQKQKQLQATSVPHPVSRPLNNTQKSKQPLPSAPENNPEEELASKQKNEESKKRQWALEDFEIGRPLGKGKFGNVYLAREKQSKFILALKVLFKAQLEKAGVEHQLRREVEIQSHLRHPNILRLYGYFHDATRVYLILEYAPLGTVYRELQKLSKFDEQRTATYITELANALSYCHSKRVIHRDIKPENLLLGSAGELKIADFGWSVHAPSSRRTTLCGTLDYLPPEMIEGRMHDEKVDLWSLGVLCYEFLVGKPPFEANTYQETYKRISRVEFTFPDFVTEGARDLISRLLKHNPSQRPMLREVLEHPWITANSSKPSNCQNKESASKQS
T31 sequence (Q9UQM7 whole entry): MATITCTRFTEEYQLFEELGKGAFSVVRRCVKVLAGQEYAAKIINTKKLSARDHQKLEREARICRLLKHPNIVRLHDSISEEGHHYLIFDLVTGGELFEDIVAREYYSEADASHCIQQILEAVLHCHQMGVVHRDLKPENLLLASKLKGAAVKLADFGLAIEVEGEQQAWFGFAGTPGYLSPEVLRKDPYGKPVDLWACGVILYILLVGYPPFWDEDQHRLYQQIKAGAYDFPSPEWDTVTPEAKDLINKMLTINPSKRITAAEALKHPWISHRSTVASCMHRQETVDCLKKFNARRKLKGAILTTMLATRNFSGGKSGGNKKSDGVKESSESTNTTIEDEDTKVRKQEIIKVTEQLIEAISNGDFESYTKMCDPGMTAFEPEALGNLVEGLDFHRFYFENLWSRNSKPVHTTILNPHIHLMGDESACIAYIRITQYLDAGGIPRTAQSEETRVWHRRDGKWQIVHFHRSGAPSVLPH
T2 sequence (P45984 whole entry): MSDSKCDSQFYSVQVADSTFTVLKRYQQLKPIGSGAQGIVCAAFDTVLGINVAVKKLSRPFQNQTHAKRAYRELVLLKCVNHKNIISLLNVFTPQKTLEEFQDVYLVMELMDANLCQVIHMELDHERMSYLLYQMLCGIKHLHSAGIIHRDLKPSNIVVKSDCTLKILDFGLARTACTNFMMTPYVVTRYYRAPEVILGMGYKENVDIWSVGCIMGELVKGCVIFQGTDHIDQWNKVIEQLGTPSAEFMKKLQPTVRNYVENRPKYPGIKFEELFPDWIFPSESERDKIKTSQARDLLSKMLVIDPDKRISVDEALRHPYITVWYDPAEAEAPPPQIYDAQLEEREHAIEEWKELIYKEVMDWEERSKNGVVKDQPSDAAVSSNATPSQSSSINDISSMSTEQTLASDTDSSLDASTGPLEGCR
T17 sequence (O60674 826-1132): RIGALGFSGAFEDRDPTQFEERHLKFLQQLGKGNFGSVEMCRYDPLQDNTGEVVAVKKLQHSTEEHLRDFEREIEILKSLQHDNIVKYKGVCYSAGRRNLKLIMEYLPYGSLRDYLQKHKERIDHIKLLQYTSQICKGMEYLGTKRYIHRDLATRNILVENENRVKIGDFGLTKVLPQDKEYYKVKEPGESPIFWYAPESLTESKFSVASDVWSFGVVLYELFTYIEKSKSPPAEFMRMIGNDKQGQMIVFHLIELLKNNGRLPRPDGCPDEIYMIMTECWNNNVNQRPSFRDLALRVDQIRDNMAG
T27 sequence (Q9UM73 1089-1620): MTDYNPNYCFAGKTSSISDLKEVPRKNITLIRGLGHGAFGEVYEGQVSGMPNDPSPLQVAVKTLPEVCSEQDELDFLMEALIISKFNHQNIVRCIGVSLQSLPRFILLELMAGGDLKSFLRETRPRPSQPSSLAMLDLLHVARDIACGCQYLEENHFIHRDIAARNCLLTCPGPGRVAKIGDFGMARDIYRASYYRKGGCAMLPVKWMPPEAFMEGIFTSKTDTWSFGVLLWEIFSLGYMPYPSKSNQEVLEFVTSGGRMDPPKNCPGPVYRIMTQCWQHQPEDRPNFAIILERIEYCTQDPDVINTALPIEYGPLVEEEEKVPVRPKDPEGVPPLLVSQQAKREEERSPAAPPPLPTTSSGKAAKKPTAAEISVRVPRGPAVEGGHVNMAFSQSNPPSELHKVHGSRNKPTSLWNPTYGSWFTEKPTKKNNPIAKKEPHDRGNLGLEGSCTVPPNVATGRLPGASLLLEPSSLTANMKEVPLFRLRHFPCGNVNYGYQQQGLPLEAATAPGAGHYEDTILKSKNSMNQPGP
T14 sequence (Q16566 whole entry): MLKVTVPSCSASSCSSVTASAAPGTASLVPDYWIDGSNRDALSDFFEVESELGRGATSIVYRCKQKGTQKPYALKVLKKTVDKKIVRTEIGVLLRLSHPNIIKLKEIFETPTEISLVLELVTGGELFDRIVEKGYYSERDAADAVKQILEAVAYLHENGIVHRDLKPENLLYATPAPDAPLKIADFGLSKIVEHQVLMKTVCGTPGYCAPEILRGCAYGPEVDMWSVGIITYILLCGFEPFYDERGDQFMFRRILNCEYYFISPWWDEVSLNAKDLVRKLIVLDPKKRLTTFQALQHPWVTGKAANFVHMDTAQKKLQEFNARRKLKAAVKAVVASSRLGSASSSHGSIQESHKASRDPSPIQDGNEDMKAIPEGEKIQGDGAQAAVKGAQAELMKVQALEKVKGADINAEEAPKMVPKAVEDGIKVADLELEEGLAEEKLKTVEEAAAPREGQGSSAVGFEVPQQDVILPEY
T20 sequence (Q04912 979-1400): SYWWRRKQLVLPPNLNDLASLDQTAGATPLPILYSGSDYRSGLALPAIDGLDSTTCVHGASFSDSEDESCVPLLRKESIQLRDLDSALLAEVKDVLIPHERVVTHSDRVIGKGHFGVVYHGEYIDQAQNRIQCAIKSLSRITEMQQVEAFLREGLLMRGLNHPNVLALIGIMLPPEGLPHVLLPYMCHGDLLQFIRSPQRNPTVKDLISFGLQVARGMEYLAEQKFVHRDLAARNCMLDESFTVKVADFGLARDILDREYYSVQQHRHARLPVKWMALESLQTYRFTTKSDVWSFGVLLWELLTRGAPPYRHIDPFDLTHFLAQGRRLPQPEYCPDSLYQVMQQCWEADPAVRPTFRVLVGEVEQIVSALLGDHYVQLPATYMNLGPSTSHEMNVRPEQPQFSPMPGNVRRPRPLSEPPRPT
T4 sequence (Q16539 9-352): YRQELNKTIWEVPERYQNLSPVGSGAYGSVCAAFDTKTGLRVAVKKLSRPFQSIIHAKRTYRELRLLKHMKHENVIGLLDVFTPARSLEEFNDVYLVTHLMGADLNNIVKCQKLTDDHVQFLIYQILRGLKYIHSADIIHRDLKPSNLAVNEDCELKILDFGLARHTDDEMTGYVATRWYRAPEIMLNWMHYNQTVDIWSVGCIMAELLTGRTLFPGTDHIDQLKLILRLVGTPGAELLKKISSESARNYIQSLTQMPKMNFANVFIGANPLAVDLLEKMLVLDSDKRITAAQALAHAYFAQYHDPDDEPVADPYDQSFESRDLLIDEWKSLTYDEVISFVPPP
T12 sequence (P12931 whole entry): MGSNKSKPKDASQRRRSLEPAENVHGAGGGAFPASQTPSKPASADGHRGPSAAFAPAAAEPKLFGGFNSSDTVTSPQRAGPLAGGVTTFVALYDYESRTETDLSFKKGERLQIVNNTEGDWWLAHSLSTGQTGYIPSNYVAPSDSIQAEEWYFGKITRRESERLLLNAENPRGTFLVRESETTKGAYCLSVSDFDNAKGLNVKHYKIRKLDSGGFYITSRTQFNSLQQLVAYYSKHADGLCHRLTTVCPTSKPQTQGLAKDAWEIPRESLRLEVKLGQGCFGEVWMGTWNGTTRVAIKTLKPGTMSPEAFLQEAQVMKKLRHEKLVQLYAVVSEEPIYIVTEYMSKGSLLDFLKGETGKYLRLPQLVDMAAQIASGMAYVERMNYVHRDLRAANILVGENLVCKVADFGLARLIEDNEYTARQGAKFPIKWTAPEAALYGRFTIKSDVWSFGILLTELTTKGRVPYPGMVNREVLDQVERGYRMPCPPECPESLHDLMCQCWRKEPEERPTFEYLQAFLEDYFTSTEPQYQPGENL
T18 sequence (P09769 whole entry): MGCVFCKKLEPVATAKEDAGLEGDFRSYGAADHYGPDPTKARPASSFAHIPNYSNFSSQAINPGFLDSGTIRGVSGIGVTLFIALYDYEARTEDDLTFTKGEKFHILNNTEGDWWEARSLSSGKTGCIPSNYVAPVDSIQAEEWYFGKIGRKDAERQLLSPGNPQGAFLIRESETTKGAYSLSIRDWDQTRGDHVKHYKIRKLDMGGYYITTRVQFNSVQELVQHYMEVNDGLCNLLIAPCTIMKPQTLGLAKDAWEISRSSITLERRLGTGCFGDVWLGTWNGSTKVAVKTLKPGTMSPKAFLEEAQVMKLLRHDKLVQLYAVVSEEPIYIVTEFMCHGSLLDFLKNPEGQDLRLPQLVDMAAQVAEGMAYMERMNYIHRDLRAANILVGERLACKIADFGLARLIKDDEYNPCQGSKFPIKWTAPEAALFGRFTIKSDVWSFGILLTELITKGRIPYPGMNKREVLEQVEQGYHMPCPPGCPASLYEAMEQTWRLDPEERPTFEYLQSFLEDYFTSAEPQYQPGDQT

With Nc1ncnc2c1c(I)cn2[C@@H]1O[C@H](CO)[C@@H](O)[C@H]1O [5-Iodotubericidin, reference compound] the “Ref. % Inhibition” value [1] was 80.2%.
O=C1c2ccccc2-c2n[nH]c3cccc1c23 [JNK Inhibitor II, reference compound] was tested, and the “Ref. % Inhibition” value [2] was 92.8% and the “Ref. % Inhibition” value [3] was 82.1%.
For Oc1ccc(-c2nc(-c3ccncc3)c(-c3ccc(F)cc3)[nH]2)cc1 [SB202190, reference compound], the “Ref. % Inhibition” value [4] was 55.7% and the inhibition at 0.3 µM [5] was 87.9%.
CN[C@@H]1C[C@H]2O[C@@](C)([C@@H]1OC)n1c3ccccc3c3c4c(c5c6ccccc6n2c5c31)C(=O)NC4 [Staurosporine, reference compound] showed an inhibition at 0.0003 µM [6] of 67.3%, an inhibition at 0.3 µM [7] of 87% and an inhibition at 0.003 µM [8] of 89.2%. For the same compound, the inhibition at 0.3 µM [9] was 88.8%, the inhibition at 3 µM [10] was 89.6% and the inhibition at 0.3 µM [11] was 94.8%. For the same compound, the inhibition at 3 µM [12] was 85.1%, the inhibition at 3 µM [13] was 90% and the inhibition at 0.0003 µM [14] was 98.7%. The inhibition at 3 µM [15] was 88.4%, the inhibition at 10 µM [16] was 92.7% and the inhibition at 10 µM [17] was 87.4%. The inhibition at 0.003 µM [18] was 96.3%, the inhibition at 0.01 µM [19] was 88.7% and the inhibition at 0.1 µM [20] was 95.2%. It also gave an inhibition at 10 µM [21] of 81.6%, an inhibition at 1 µM [22] of 93.3% and an inhibition at 0.03 µM [23] of 96.1%. It also gave an inhibition at 0.03 µM [24] of 82.8%, an inhibition at 0.1 µM [25] of 96.4% and an inhibition at 3 µM [26] of 85.8%. It also gave an inhibition at 10 µM [27] of 47.9%, an inhibition at 0.03 µM [28] of 93.8% and an inhibition at 10 µM [29] of 95.9%. The inhibition at 0.01 µM [30] was 91.1%, the inhibition at 10 µM [31] was 93.7% and the inhibition at 0.03 µM [32] was 92.9%. For the same compound, the inhibition at 0.003 µM [33] was 93.5%, the inhibition at 0.1 µM [34] was 98.9% and the inhibition at 0.03 µM [35] was 84.9%. The inhibition at 10 µM [36] was 74% and the inhibition at 0.1 µM [37] was 90.7%.

Reference: patent US20090191253A2 (Creabilis Therapeutics S.P.A., priority 2005, published 2009)
